Laboratory results taken from patent US20230122540A1, “SYSTEMS AND METHODS TO TRACK THE EVOLUTION OF SINGLE CELLS” (Genentech, Inc., priority 2020, published 2023).
“Also recorded” adds a separate entry of the source. Like-named read-outs stand apart in the source and are kept apart here.

Legend:
[1] = biological target: T1, EGFR (Homo sapiens, UniProt P00533, DEL746-750); assay: Western blot of EGFR and pEGFR in HCC827 cells; assay type: cell-based; conditions: for EGFR degradation: HCC827 cells
T1 construct: does-dependent EGFR degradation induced by GNE-104 in HCC827 cells; endogenous in cells; host or cells: HCC827
Protocol: Immunoblotting: Immunoblotting performed using standard methods. Cells were briefly washed in ice-cold PBS and lysed in the following lysis buffer (1% NP40, 50 mM Tris, pH 7.8, 150 mM NaCl, 5 mM EDTA) plus protease inhibitor mixture (Complete mini tablets, Roche Applied Science, 11836170001) and phosphatase inhibitor mix (Thermo Fisher Scientific, 78420). Lysates centrifuged at 15,000 rpm for 10 minutes at 4° C. and the protein concentration determined by BCA (Thermo Fisher Scientific, 23227). Equal amounts of protein were resolved by SDS-PAGE on NuPAGE, 4-12% Bis-Tris Gels (Thermo Fisher Scientific, WG-1403) and transferred to nitrocellulose membrane (Bio-Rad, 170-4159). Membranes were blocked in blocking buffer (Li-Cor, 927-40000), incubated overnight with the indicated primary antibodies and analyzed by the addition of secondary antibodies IRDye 680LT Goat anti-Mouse IgG (Li-Cor, 926-68050) or IRDye 800CW Goat anti-Rabbit IgG (Li-Cor, 926-32211). The membranes were visualized on a Li-Cor Odyssey CLx Scanner. Anti-EGFR (MI-12-1) purchased from Medical and Biological Labs, anti-pEGFR (3777), anti β-Tubulin (2146) and anti-β-Actin (4970) purchased from Cell Signaling Technology. IR-conjugated secondary antibodies Goat anti-Mouse 680LT (926-68020), and Goat anti-Rabbit 800CW (926-32211) purchased from Li-Cor.

[2] = test system: PC9 cells; assay: Anti-growth effects in PC9 cells (clonogenic assay, cell counting, Incucyte imaging); assay type: cell-based, human; conditions: 1 μM
Protocol: Compound dose matching: […] Clonogenic assay: Cells were seeded at desired densities in two to three replicates in 6-well plates and allowed to attach overnight. The following day cells were treated with the indicated compounds. Media containing the appropriate compounds was replenished every 48-72 hours. At the end of the assay, the cells were washed once with PBS, fixed and stained with crystal violet solution (Sigma Aldrich, HT90132) for 20 minutes, washed with water, and allowed to dry before scanning. […] For experiments shown in FIG. 27B, cells were treated with either DMSO or 1 μM ISRIB (Tocris Cat. No. 5284) for 24 h, and then co-treated with EGFR inhibitors for 8 days.

[3] = test system: PC9 cells; assay: TraCe-seq experiment (barcoded PC9 cells, scRNA-seq on day four); assay type: cell-based, human; conditions: for cell cycle arrest (GO): fraction of cells in GO state inferred by gene expression, day four
Protocol: To conduct the TraCe-seq experiment, 600 PC9 cells carrying unique barcodes were randomly selected and these cells were expanded for ˜12 doublings to establish the starting population. Single cell transcriptional profiling on a fraction of this population at ˜30× coverage of the barcodes was performed to record the baseline transcriptional programs and relative clonal abundance. 200K of these cells were seeded and were treated with either erlotinib, GNE-104, or GNE-069. Cells were harvested on day four and profiled by 10×scRNA-seq to determine the relative fitness of each clone and capture treatment-induced transcriptional changes (FIG. 17D).
TraCe-Seq barcode assignment: TraCe-Seq barcode recovery from scRNA-Seq FASTQs was performed using Salmon (v. 0.1.1). Briefly, custom augmented Salmon index was created using human reference GRCh38 and transgene GFP fused to one of 100,000 30-nt GC-optimized barcode in library. Transcript expression of demultiplexed per-cell FASTQs were then quantified using custom Salmon index. Cells with single GFP-barcode expression were assigned to corresponding TraCe-Seq barcode. Cells with multiple TraCe-Seq barcodes expressed were assigned to a single TraCe-Seq barcode if expression one TraCe-Seq was 3-fold higher than other detected TraCe-Seq barcodes.

[4] = test system: EGFR-mutant lung cancer cell lines; assay: Clonogenic and CellTiter-Glo assay in EGFR-mutant lung cancer cell lines; assay type: cell-based, human; conditions: multiple EGFR-mutant lung cancer cell lines, vs erlotinib or GNE-069
Protocol: Clonogenic assay: Cells were seeded at desired densities in two to three replicates in 6-well plates and allowed to attach overnight. The following day cells were treated with the indicated compounds. Media containing the appropriate compounds was replenished every 48-72 hours. At the end of the assay, the cells were washed once with PBS, fixed and stained with crystal violet solution (Sigma Aldrich, HT90132) for 20 minutes, washed with water, and allowed to dry before scanning. For experiments shown in FIG. 18E erlotinib concentration were determined to match the cell viability effect to 1 μM GNE-069 in each cell line, so that 1 μM erlotinib was applied to PC-9 and HCC2935, and 100 nM erlotinib was applied to HCC4006 and HCC827. […]
Cell viability and cell death quantification: For experiments shown in FIGS. 24C, 27D, the indicated cells were seeded at desired densities in replicates in 24-well plates and allowed to attach overnight. […] At each media change, cell viabilities were quantified using CellTiter-Glo Luminescent Cell Viability Assay (Promega, G7572). […] Induction of cell death was quantified 24 h post-treatment using Caspase-Glo 3/7 Assay System (Promega, G8093) and cell survival were measured 72 h post-treatment using CellTiter-Glo Luminescent Cell Viability Assay (Promega, G7572). […]

[5] = test system: H1975 cells; assay: Crystal violet viability of H1975 cells, Osimertinib plus Degrader (Example 3); assay type: cell-based, human; conditions: 100 nM Osimertinib 4 hours, then + 1 uM Degrader 24 hours
Protocol: H1975 cells were treated first for 4 hours with 100 nM of the kinase inhibitor Osimertinib, then subjected to co-treatment with 100 nM Osimertinib+1 uM of Degrader for 24 hours.

[6] = test system: PC9 cells; assay: scRNA-seq gene expression in barcoded PC9 cells (Example 3); assay type: cell-based, human; conditions: for ISR pathway / ATF4 and SLC7A5 expression: Day 5 of treatment; for canonical MAPK target gene expression: day 5 of treatment
From the text: The above-described workflow was used to evaluate adaptation of mutated EGFR lung cancer cells to treatment strategies including EGFR kinase inhibition (Erlotinib) and EGFR protein degradation (Degrader G-104 or Degrader) using the PC9 (non-small cell lung carcinoma) cell line model. Six hundred PC9 cells containing unique barcodes were expanded separately for 12 days. The clones were then pooled into groups of cells with replicate barcodes and subjected to a first scRNA-seq on Day 1. Subsequently, the groups of cells were treated with either DMSO (vehicle control), Erlotinib, or Degrader. On Day 5 of the treatment, a second scRNA-seq was performed to evaluate an initial response of the cells to the treatments. Treatment with Erlotinib or Degrader was continued for approximately two more months. At the endpoint of the treatment, a final scRNA-seq was performed on the surviving cells. scRNA-seq data was analyzed with Next Generation Sequencing technologies, and barcode quantities were determined for both treatments, as illustrated in FIGS. 4A-4B.
Single cell RNA-seq data was further analyzed to evaluate how Degrader resistant clones respond differently to Erlotinib versus Degrader. […] Compared to Degrader, Erlotinib activated genes involved in ER protein processing pathways.
Thus, PC9 cells were treated with either siNTC+Erlotinib, siEGFR+Erlotinib, or siEGFR+DMSO, then analyzed for ISR and MAPK genes after 72 hrs (via scRNA-seq), and assessed for cell viability at Day 6. […] Results shown in FIG. 11D illustrate decreased efficacy of Erlotinib when combined with siEGFR, as indicated by greater numbers of viable cells in the Erlotinib+siEGFR treatment group compared to treatment by only Erlotinib.

[7] = test system: common EGFR mutant variants; assay: in vitro kinase inhibition assay; assay type: biochemical; conditions: panel of 218 kinases
[8] = test system: ATF4, CHOP, GADD34; assay: qRT-PCR of pro-death genes downstream of ER stress; assay type: cell-based, human; conditions: for expression of key pro-death ISR genes downstream of ER stress (ATF4, CHOP, GADD34): PC9, HCC4006 and NCI-H1975 cells; for induction of pro-death ER stress genes: PC9 cells, with GNE-104, very low non-toxic concentrations
Protocol: RNA extraction and qRT-PCR: RNA was extracted using Qiagen RNeasy Plus kit following manufacturer's instruction. RNA was reverse transcribed using High-Capacity cDNA Reverse Transcription Kit (Thermo Fisher Scientific Cat. No. 4368814). qPCRs were performed using TaqMan™ Fast Advanced Master Mix (Thermo Fisher Scientific Cat. No. 4444557) on ABI QuantStudio 7 Flex Real-Time PCR Systems. HPRT1 was used as the internal control to quantify relative gene expression levels. Taqman probes were obtained from Thermo Fisher Scientific (Cat. No. 431182, 4448490). These probes were used in the study: ATF4 Hs00909569_g1, DDIT3/CHOP Hs00358796_g1, PPP1R15A/GADD34 Hs00169585_m1, SLC7A5 Hs01001183_m1, ETV4 Hs00385910_m1, SPRY4 Hs00540086_m1, DUSP6 Hs04329643_s1, HPRT1 Hs02800695_m1.

[9] = test system: PC9 and H1975 cells; assay: Clonogenic / CellTiter-Glo assay with pharmacological ER stress modulators; assay type: cell-based
Protocol: Clonogenic assay: Cells were seeded at desired densities in two to three replicates in 6-well plates and allowed to attach overnight. The following day cells were treated with the indicated compounds. Media containing the appropriate compounds was replenished every 48-72 hours. At the end of the assay, the cells were washed once with PBS, fixed and stained with crystal violet solution (Sigma Aldrich, HT90132) for 20 minutes, washed with water, and allowed to dry before scanning. For experiments shown in FIG. 18E erlotinib concentration were determined to match the cell viability effect to 1 μM GNE-069 in each cell line, so that 1 μM erlotinib was applied to PC-9 and HCC2935, and 100 nM erlotinib was applied to HCC4006 and HCC827. For experiments shown in FIG. 27B, cells were treated with either DMSO or 1 μM ISRIB (Tocris Cat. No. 5284) for 24 h, and then co-treated with EGFR inhibitors for 8 days. For other experiments cells were treated with 1 μM GNE-104 for 24 h, and then co-treated with 0.5 μg/ml Tunicamycin (Sigma Aldrich, T7765), or 1 nM Thapsigargin (Sigma Aldrich, T9033) for three days.
Cell viability and cell death quantification: For experiments shown in FIGS. 24C, 27D, the indicated cells were seeded at desired densities in replicates in 24-well plates and allowed to attach overnight. The following day cells were treated with the indicated compounds. Media containing the appropriate compounds was replenished every 48 hours. At each media change, cell viabilities were quantified using CellTiter-Glo Luminescent Cell Viability Assay (Promega, G7572). For experiments shown in FIG. 191 and FIG. 29D, PC9 cells were seeded in replicates in 96-well plates and allowed to attach overnight. The following day cells were treated with the indicated compounds or compound combinations at the indicated concentrations. Induction of cell death was quantified 24 h post-treatment using Caspase-Glo 3/7 Assay System (Promega, G8093) and cell survival were measured 72 h post-treatment using CellTiter-Glo Luminescent Cell Viability Assay (Promega, G7572). […]

[10] = Crystal violet % Survival with ISR modulators (Example 3); assay type: cell-based
Protocol: Tunicamycin and Thapsigargin were used as inducers of ER stress, and Integrated Stress Response Inhibitor (ISRIB) was used to inhibit ISR activation. Cells were treated with Degrader, Degrader+Tunicamycin, or Degrader+Thapsigargin to assess the effect of ER stress on Degrader efficacy. In another experimental group, cells were treated either with Degrader, Erlotinib, or Erlotinib and ISRIB.

[11] = test system: PC9 cells; assay: Initial response of PC9 cells to Erlotinib (viability, phase contrast imaging); assay type: cell-based, human; conditions: within five days, compared to the DMSO control
Protocol: Six hundred PC9 cells containing unique barcodes were expanded separately for 12 days. The clones were then pooled into groups of cells with replicate barcodes and subjected to a first scRNA-seq on Day 1. Subsequently, the groups of cells were treated with either DMSO (vehicle control) or Erlotinib. On Day 5 of the treatment, a second scRNA-seq was performed to evaluate an initial response of the cells to the treatments.

Compound: C#Cc1cccc(Nc2ncnc3cc(OCCOC)c(OCCOCC#CC#CCOCC(=O)N[C@H](C(=O)N4C[C@H](O)C[C@@H]4C(=O)NCc4ccc(-c5scnc5C)cc4)C(C)(C)C)cc23)c1 [GNE-104, (2R,4R)-1-((S)-2-(2-((6-(2-((4-((3-Ethynylphenyl)amino)-7-(2-methoxyethoxy)quinazolin-6-yl)oxy)ethoxy)hexa-2,4-diyn-1-yl)oxy)acetamido)-3,3-dimethylbutanoyl)-4-hydroxy-N-(4-(4-methylthiazol-5-yl)benzyl)pyrrolidine-2-carboxamide]
- phospho-EGFR levels [1]: potently suppressed phospho-EGFR levels
- EGFR degradation [1]: significant dose-dependent degradation of EGFR
- anti-growth effects (inhibiting cell growth) [2]: far less efficient in inhibiting cell growth compared to erlotinib and GNE-069; also recorded: less efficacious
- reduction of absolute number and diversity of TraCe-seq barcodes ([3]; day four of treatment): less effective in reducing both the absolute number and the diversity of TraCe-seq barcodes
- anti-growth effect [4]: reduced anti-growth effect
- effect on kinase inhibitor activity [5]: attenuated kinase inhibitor activity
- ISR pathway / ATF4 and SLC7A5 expression [6]: does not activate the ISR pathway
- canonical MAPK target gene expression [6]: strongly suppressed canonical MAPK target genes

Compound: C#Cc1cccc(Nc2ncnc3cc(OCCOC)c(OCCOCC#CC#CCOCC(=O)N[C@H](C(=O)N4C[C@@H](O)CC4C(=O)NCc4ccc(-c5scnc5C)cc4)C(C)(C)C)cc23)c1 (stereo in doubt) [GNE-069, (2R,4S)-1-((S)-2-(2-((6-(2-((4-((3-Ethynylphenyl)amino)-7-(2-methoxyethoxy)quinazolin-6-yl)oxy)ethoxy)hexa-2,4-diyn-1-yl)oxy)acetamido)-3,3-dimethylbutanoyl)-4-hydroxy-N-(4-(4-methylthiazol-5-yl)benzyl)pyrrolidine-2-carboxamide]
- EGFR degradation [1]: fails to engage VHL (due the specific stereochemistry in the VHL-binding moiety) and degrade EGFR
- potency and selectivity profile in in vitro kinase inhibition assays [7]: comparable potency and selectivity profile as GNE-104
- anti-growth effects (inhibiting cell growth) [2]: comparable activity by all three measures
- cell cycle arrest (GO) [3]: far greater cell cycle arrest (GO) than GNE-104

Compound: C=CC(=O)Nc1cc(Nc2nccc(-c3cn(C)c4ccccc34)n2)c(OC)cc1N(C)CCN(C)C [osimertinib]
- expression of key pro-death ISR genes downstream of ER stress (ATF4, CHOP, GADD34) [8]: significantly induced expression of key pro-death ISR genes

Compound: O=C(COc1ccc(Cl)cc1)NC1CCC(NC(=O)COc2ccc(Cl)cc2)CC1 (centres unmarked) [ISRIB]
- activation of ATF4, CHOP, GADD34 induced by EGFR kinase inhibitors ([8]; ISRIB for 24 hours before adding EGFR kinase inhibitor): blunted activation of ATF4, CHOP, and GADD34
- cell killing by EGFR kinase inhibitors ([9]; ISRIB pre-treatment, PC9 and H1975 cells): decreased cell killing in both PC9 and H1975 cells
- efficacy of Erlotinib on addition of ISRIB (cell viability) [10]: loss of efficacy of Erlotinib

Compound: tunicamycin
- induction of pro-death ER stress genes [8]: greatly induced pro-death ER stress genes
- cytotoxic activity of GNE-104 on co-treatment ([9]; PC9 cells, very low non-toxic concentrations of ER stress inducer): enhanced the cytotoxic activity of the degrader GNE-104

Compound: C/C=C(/C)C(=O)O[C@H]1C(C)=C2[C@H]([C@@H]1OC(=O)CCCCCCC)[C@@](C)(OC(C)=O)C[C@H](OC(=O)CCC)[C@@]1(O)[C@H]2OC(=O)[C@@]1(C)O [thapsigargin]
- induction of pro-death ER stress genes [8]: greatly induced pro-death ER stress genes
- cytotoxic activity of GNE-104 on co-treatment [9]: enhanced the cytotoxic activity of the degrader GNE-104

Compound: C#Cc1cccc(Nc2ncnc3cc(OCCOC)c(OCCOC)cc23)c1 [Erlotinib]
- reduction in viability [11]: greater than 98%
- anti-growth effects (inhibiting cell growth) [2]: comparable activity by all three measures
- cell cycle arrest (GO) [3]: far greater cell cycle arrest (GO) than GNE-104
- expression of key pro-death ISR genes downstream of ER stress (ATF4, CHOP, GADD34) [8]: significantly induced expression of key pro-death ISR genes
- ISR pathway / ATF4 and SLC7A5 expression [6]: additionally upregulated on Day 5 of Erlotinib treatment
- canonical MAPK target gene expression [6]: strongly suppressed canonical MAPK target genes
